{"source": "patent EP1555944B1", "about": "“PACKAGED ANTIMICROBIAL MEDICAL DEVICE AND METHOD OF PREPARING SAME” (ETHICON, INC., priority 2002, dated 2004)", "key": {"S. aureus": {"test_system": "S. aureus", "details": "suitable growth medium; cited from earlier work"}, "[1]": {"assay": "Triclosan distribution between suture and package components after sterilization", "type": "physicochemical", "details": "size 5-0 suture, 2% triclosan coating composition, about 23.2 µg before sterilization", "method": "The coated sutures each were placed in a package as described herein above including a containment component, i.e., a tray, for holding the suture and a paper component for covering the suture in the tray. The suture in the containment component and packaging were sterilized as described herein above. After sterilization, it was determined that that suture contained about 5.5 µg triclosan, the tray about 0.2 µg triclosan, the paper component about 2.3 µg triclosan, and the package heat seal coating about 1.5 µg triclosan. Triclosan not recovered after sterilization was about 13.7 µg triclosan. Fig. 1 indicates triclosan transfer from the antimicrobial suture to the tray of the package as a function of time at 55°C."}}}
{"smiles": "Oc1cc(Cl)ccc1Oc1ccc(Cl)cc1Cl", "note": "[2,4,4'-trichloro-2'-hydroxydiphenyl ether]", "values": [{"measurement": "minimum inhibitory concentration (MIC)", "setting": "S. aureus", "result": 0.01, "unit": "ppm"}, {"measurement": "Triclosan not recovered after sterilization", "setting": "[1]", "result": "about 13.7 µg"}, {"measurement": "triclosan on package heat seal coating after sterilization", "setting": "[1]", "result": "about 1.5 µg"}, {"measurement": "triclosan on paper component after sterilization", "setting": "[1]", "result": "about 2.3 µg"}, {"measurement": "triclosan on suture after sterilization", "setting": "[1]", "result": "about 5.5 µg"}, {"measurement": "triclosan on tray after sterilization", "setting": "[1]", "result": "about 0.2 µg"}]}
